In the Kinase Knowledgebase extract (Sharma et al. 2016) one finds IC50 data, which are given here for 60 compounds.

Chain of PIK3CD (Human) (O00329 whole entry, looked up): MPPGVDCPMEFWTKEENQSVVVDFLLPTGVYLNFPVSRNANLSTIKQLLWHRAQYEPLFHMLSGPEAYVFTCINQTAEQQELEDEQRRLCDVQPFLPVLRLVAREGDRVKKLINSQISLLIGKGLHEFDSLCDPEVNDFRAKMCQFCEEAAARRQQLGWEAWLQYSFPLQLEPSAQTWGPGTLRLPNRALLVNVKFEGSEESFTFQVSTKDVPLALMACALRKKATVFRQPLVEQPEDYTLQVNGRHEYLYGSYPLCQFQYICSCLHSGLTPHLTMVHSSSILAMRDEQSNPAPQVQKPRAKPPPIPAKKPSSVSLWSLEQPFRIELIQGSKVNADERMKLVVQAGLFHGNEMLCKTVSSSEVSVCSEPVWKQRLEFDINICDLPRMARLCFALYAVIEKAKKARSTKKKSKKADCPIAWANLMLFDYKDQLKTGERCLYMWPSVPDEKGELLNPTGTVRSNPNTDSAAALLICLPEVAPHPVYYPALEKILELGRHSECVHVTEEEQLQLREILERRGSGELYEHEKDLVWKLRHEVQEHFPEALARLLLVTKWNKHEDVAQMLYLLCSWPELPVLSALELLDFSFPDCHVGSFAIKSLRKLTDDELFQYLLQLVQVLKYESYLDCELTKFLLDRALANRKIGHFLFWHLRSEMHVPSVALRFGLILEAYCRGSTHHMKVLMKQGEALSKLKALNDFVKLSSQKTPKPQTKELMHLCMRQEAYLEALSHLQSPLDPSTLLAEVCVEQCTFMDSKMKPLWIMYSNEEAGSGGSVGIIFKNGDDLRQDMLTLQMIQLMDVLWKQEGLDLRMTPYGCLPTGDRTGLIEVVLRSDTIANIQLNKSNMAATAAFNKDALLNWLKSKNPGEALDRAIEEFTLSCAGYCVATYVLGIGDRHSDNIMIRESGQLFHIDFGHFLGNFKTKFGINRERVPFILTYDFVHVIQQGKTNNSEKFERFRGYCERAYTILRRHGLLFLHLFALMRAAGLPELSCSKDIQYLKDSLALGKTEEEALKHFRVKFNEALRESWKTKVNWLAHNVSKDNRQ

The test concerns the target PIK3CD (Human) (UniProt O00329). The experiment in a line: Enzyme Assay.
For `CCn1c(-c2cnc(C)nc2)nc2c(O[C@H]3CCN(c4cccc(F)c4)C3)ncnc21`, the half-maximal inhibitory concentration (IC50) is 2.2 nM.

For the compound `CCn1ncc(-c2nc3c(O[C@@H]4CC[C@H](NC(=O)OC(C)(C)C)C4)ncnc3n2C)c1C`, the IC50 is 400 nM.

Compound `CCn1ncc(-c2nc3c(O[C@H]4CCN(S(=O)(=O)C(C)C)C4)ncnc3n2C)c1C` yielded an IC50 of 530 nM.

In turn, `CCn1ncc(-c2nc3c(O[C@@H]4CCCN(C(=O)OC(C)(C)C)C4)ncnc3n2C)c1C` showed an IC50 of 4600 nM.

Regarding `CCn1ncc(-c2nc3c(O[C@H]4CCN(C(=O)c5nnc6n5CCCC6)C4)ncnc3n2C)c1C`, the IC50 was 240 nM.

`CCn1ncc(-c2nc3c(O[C@H]4CCN(c5ncnc6sc(C)c(C)c56)C4)ncnc3n2C)c1C` registered a concentration for half-maximal inhibition (IC50) of 19 nM.

`CCn1ncc(-c2nc3c(O[C@H]4CCN(S(=O)(=O)C(F)(F)F)C4)ncnc3n2C)c1C` had an IC50 of 1000 nM.

`CCC(=O)N1CC[C@H](Oc2ncnc3c2nc(Oc2ccc(OC)c(F)c2)n3C)C1`: the IC50 was 120 nM.

In the case of `CCn1ncc(-c2nc3c(O[C@H]4CCN(c5ncccn5)C4)ncnc3n2C)c1C`, the IC50 turned out to be 21 nM.

`CCn1ncc(-c2nc3c(O[C@H]4CCN(c5ncnc6sccc56)C4)ncnc3n2C)c1C` had an IC50 of 5.7 nM.

Compound `CCn1ncc(-c2nc3c(O[C@H]4CCN(C(=O)Oc5ccccc5)C4)ncnc3n2C)c1C` gave a 50% inhibitory concentration (IC50) of 90 nM.

`Cn1c(-c2ccc(O)cc2)nc2c(O[C@H]3CCN(C(=O)OC(C)(C)C)C3)ncnc21` displayed an IC50 of 98 nM.

`CCC(=O)N1CC[C@H](Oc2ncnc3c2nc(-c2cnn(CC)c2C)n3CC(F)F)C1` gave an IC50 of 3.1 nM.

`CCC(=O)N1CC[C@H](Oc2ncnc3c2nc(-c2cnc4[nH]ccc4c2)n3C)C1`: the 50% inhibitory concentration (IC50) amounted to 19 nM.

`CCn1ncc(-c2nc3c(O[C@H]4CCN(C(=O)Oc5ccc(OC)cc5)C4)ncnc3n2C)c1C` displayed a concentration for half-maximal inhibition (IC50) of 65 nM.

Take `CCC(=O)N1CC[C@H](Oc2ncnc3c2nc(-c2cnc4[nH]nc(C)c4c2)n3C)C1`: the IC50 worked out at 23 nM.

The compound `CCn1ncc(-c2nc3c(O[C@H]4CCN(C(=O)CN5CCCC5=O)C4)ncnc3n2C)c1C` yielded a 50% inhibitory concentration (IC50) of 480 nM.

In turn, `CCn1ncc(-c2nc3c(O[C@H]4CCN(C(=O)c5cc(C)n(C)n5)C4)ncnc3n2C)c1C` had an IC50 of 150 nM.

The compound `CCC(=O)N1CC[C@H](Oc2ncnc3c2nc(-c2cnc(OC)c(F)c2)n3C)C1` yielded a half-maximal inhibitory concentration (IC50) of 9.3 nM.

On to `CCn1ncc(-c2nc3c(S(=O)(=O)[C@H]4CCN(C(=O)C5CCOCC5)C4)ncnc3n2C)c1C`, for which the half-inhibitory concentration (IC50) came to 960 nM.

In turn, `CCn1c(-c2cnc(C)nc2)nc2c(O[C@H]3CC[C@@H](NC(=O)C4CC4)CC3)ncnc21` yielded a half-maximal inhibitory concentration (IC50) of 120 nM.

As for `CCn1ncc(-c2nc3c(OC4CCN(C(=O)C5CCCC5)CC4)ncnc3n2C)c1C`, the IC50 was determined as 550 nM.

As to `CCn1c(-c2cnc(C)nc2)nc2c(O[C@H]3CCN(C(=O)OC(C)(C)C)C3)ncnc21`, the 50% inhibitory concentration (IC50) was 8.3 nM.

`CCn1c(-c2ccc(OC)nc2)nc2c(O[C@H]3CCN(C(=O)C(C)C)C3)ncnc21`: the IC50 turned out to be 2.1 nM.

Compound `CCn1ncc(-c2nc3c(O[C@H]4CCN(C(=O)C5CCOCC5)C4)ncnc3n2C)c1C` yielded an IC50 of 4.3 nM.

`CCn1ncc(-c2nc3c(O[C@H]4CCN(C(=O)c5cn6cccnc6n5)C4)ncnc3n2C)c1C` registered an IC50 of 100 nM.

`CCn1ncc(-c2nc3c(O[C@H]4CCN(C(=O)CC#N)C4)ncnc3n2C)c1C`: the IC50 amounted to 38 nM.

For the compound `CN(C)c1ccc(-c2nc3c(O[C@H]4CCN(C(=O)OC(C)(C)C)C4)ncnc3n2C)cn1`, the IC50 came out at 65 nM.

Compound `CCn1ncc(-c2nc3c(O[C@H]4CCN(C(=O)NC5CCCCC5)C4)ncnc3n2C)c1C` displayed an IC50 of 230 nM.

Turning to `CCn1c(C(=O)NCC(F)(F)F)nc2c(O[C@H]3CCC(C(=O)N4CC(OC)C4)C3)ncnc21` (stereo not given in full), the IC50 stood at 9.9 nM.

In the case of `COC1CC(c2nc3c(O[C@H]4CCN(C(=O)OC(C)(C)C)C4)ncnc3n2C)C1` (stereo not given in full), the half-maximal inhibitory concentration (IC50) was 2100 nM.

Compound `CCn1c(-c2cnc(OC)c(F)c2)nc2c(O[C@H]3CCN(C(=O)C4CC4)C3)ncnc21` registered an IC50 below 1 nM.

Compound `CCC(=O)N1CC[C@H](Oc2ncnc3c2nc(I)n3C)C1` registered a half-inhibitory concentration (IC50) of 140 nM.

`CCn1c(-c2cnc(C)nc2)nc2c(OC3CCC(NC(=O)C4CCOCC4)C3)ncnc21` (stereo not given) had an IC50 of 170 nM.

Compound `CCn1ncc(-c2nc3c(S[C@H]4CCN(C(=O)OC(C)(C)C)C4)ncnc3n2C)c1C` returned an IC50 of 23 nM.

Turning to `CCn1ncc(-c2nc3c(O[C@H]4CCN(C(=O)C5CCC5)C4)ncnc3n2C)c1C`, the IC50 worked out at 7 nM.

`CCC(=O)N1CC[C@H](Oc2ncnc3c2nc(-c2ccc(OC)c(C(F)(F)F)c2)n3C)C1` came in with an IC50 of 2.5 nM.

`CCn1ncc(-c2nc3c(O[C@H]4CCN(C(=O)Oc5ccc(C)cc5)C4)ncnc3n2C)c1C` displayed a 50% inhibitory concentration (IC50) of 340 nM.

`CCn1ncc(-c2nc3c(O[C@H]4CCN(C(=O)c5cocn5)C4)ncnc3n2C)c1C` displayed an IC50 of 19 nM.

On to `CCn1ncc(-c2nc3c(S(=O)(=O)[C@H]4CCN(C(=O)OC(C)(C)C)C4)ncnc3n2C)c1C`, for which the half-inhibitory concentration (IC50) came to 160 nM.

`CCn1ncc(-c2nc3c(O[C@H]4CCN(C(=O)c5cnn(C)c5)C4)ncnc3n2C)c1C` yielded an IC50 of 14 nM.

`CCC(=O)N1CC[C@H](Oc2ncnc3c2nc(-c2cnn(C(C)(C)C)c2)n3C)C1` registered a concentration for half-maximal inhibition (IC50) of 4.7 nM.

The compound `CCn1ncc(-c2nc3c(OC4CCN(C(=O)C5CCCC5)C4)ncnc3n2C)c1C` (stereo not given) yielded an IC50 of 9.4 nM.

The compound `CCn1ncc(-c2nc3c(O[C@H]4CCN(Cc5ccc(N(C)C)cc5)C4)ncnc3n2C)c1C` displayed a 50% inhibitory concentration (IC50) of 3100 nM.

Compound `CCn1ncc(-c2nc3c(O[C@H]4CCN(C(=O)c5conc5C)C4)ncnc3n2C)c1C` came in with an IC50 of 14 nM.

`CCn1ncc(-c2nc3c(O[C@H]4CCN(C(=O)c5cc(C)n(C)c5C)C4)ncnc3n2C)c1C` returned a half-maximal inhibitory concentration (IC50) of 20 nM.

In the case of `CCNC(=O)N1CC[C@H](Oc2ncnc3c2nc(-c2cnn(CC)c2C)n3C)C1`, the concentration for half-maximal inhibition (IC50) was 10 nM.

`CCNC(=O)c1nc2c(O[C@H]3CCN(C(=O)OC(C)(C)C)C3)ncnc2n1CC` returned an IC50 of 310 nM.

In turn, `Cc1n[nH]c2ncc(-c3nc4c(O[C@H]5CCN(C(=O)OC(C)(C)C)C5)ncnc4n3C)cc12` showed a half-inhibitory concentration (IC50) of 4 nM.

In the case of `CCC(=O)N1CC[C@H](Oc2ncnc3c2nc(C(F)(F)F)n3C)C1`, the IC50 stood at 430 nM.

With `CCn1ncc(-c2nc3c(O[C@@H]4CCN(C(=O)C5CCOCC5)C4)ncnc3n2C)c1C`, the 50% inhibitory concentration (IC50) worked out at 1600 nM.

Consider `COc1ncc(-c2nc3c(O[C@H]4CCN(C(=O)OC(C)(C)C)C4)ncnc3n2C)cc1C`, for which the IC50 is 2.6 nM.

In turn, `Cc1nn(C)cc1-c1nc2c(O[C@H]3CCN(C(=O)OC(C)(C)C)C3)ncnc2n1C` returned a half-maximal inhibitory concentration (IC50) of 1200 nM.

In turn, `CCn1ncc(-c2nc3c(O[C@H]4CCN(C(=O)c5cnon5)C4)ncnc3n2C)c1C` yielded an IC50 of 41 nM.

On to `CCn1ncc(-c2nc3c(O[C@H]4CCN(c5cncc(C)n5)C4)ncnc3n2C)c1C`, for which the IC50 was 26 nM.

With `CCn1ncc(-c2nc3c(O[C@H]4CCN(C(=O)c5nonc5C)C4)ncnc3n2C)c1C`, the IC50 worked out at 26 nM.

`CCn1ncc(-c2nc3c(O[C@H]4CCNC4)ncnc3n2C)c1C` showed an IC50 of 2100 nM.

For `CCn1ncc(-c2nc3c(O[C@H]4CCN(C(=O)OC)C4)ncnc3n2C)c1C`, the IC50 is 12 nM.

`CCn1c(-c2cnc(C)nc2)nc2c(O[C@H]3CCN(C(=O)OC(C)(C)C)[C@@H]3C)ncnc21` returned an IC50 of 4 nM.

The compound `CCn1c(-c2cnc(C)nc2)nc2c(O[C@H]3CCN(C(=O)[C@H]4CCC[C@H]4N)C3)ncnc21` showed an IC50 of 25 nM.

A word on the IC50: it is the midpoint of a concentration-inhibition curve. Read a high IC50 as lower potency.
